Here are results for 21 molecules from ChEMBL document CHEMBL1129178, “Thiol inhibitors of endothelin-converting enzyme” (Bioorg Med Chem Lett, 1996).

One assay deals with T1, Endothelin-converting enzyme 1 (Rattus norvegicus) (UniProt P42893).
T1 sequence (whole entry): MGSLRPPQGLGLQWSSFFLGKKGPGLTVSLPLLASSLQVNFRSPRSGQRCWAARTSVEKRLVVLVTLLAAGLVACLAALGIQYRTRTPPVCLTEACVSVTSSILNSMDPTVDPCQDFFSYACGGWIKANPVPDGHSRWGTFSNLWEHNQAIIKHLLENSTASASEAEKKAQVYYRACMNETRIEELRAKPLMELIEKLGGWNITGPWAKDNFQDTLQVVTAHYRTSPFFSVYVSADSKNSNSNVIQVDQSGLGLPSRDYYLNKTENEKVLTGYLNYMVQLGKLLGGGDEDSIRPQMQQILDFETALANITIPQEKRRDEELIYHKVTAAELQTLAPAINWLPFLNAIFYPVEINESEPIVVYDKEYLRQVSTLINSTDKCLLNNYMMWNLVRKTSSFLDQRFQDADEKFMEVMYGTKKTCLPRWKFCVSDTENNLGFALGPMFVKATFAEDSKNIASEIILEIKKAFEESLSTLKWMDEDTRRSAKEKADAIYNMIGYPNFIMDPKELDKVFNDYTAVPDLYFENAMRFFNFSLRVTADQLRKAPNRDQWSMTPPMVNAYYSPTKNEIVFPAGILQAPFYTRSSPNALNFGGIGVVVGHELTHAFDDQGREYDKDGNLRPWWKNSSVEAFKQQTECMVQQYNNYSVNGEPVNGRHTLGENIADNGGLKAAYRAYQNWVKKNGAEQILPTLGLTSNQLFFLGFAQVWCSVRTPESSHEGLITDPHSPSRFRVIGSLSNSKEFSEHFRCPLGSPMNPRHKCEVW
The assay is described as follows: In vitro inhibition of cleavage of [3H]propionyl-big ET-1(19-35) by Endothelin-converting enzyme 1 from rat lungs at 10000 nM.
Take `O=C(O)[C@H](Cc1c[nH]c2ccccc12)NC(=O)[C@@H](S)Cc1ccccc1`: the inhibition (as a rule, the drop in the measured response relative to a control, in per cent) turned out to be 65%.

The next assay addresses T2, Endothelin-converting enzyme 1 (Rattus norvegicus, UniProt P42893).
T2 sequence (P42893 whole entry): T1 sequence (whole entry)
Nature of the assay: In vitro inhibition of Endothelin-converting enzyme 1 from rat lungs.
As for `O=C(N[C@@H](Cc1c[nH]c2ccccc12)C(=O)O)C(CS)Cc1ccc(Br)cc1` (stereo partly specified), the midpoint of inhibition, the IC50, lay at 25 nM.

Take `O=C(N[C@@H](Cc1ccc(-c2cccs2)cc1)C(=O)O)[C@@H](CS)Cc1ccccc1`: the IC50 (usually the concentration that gives 50% inhibition) amounted to 55 nM.

In the case of `O=C(N[C@@H](Cc1c[nH]c2ccccc12)C(=O)O)[C@H](CS)Cc1ccccc1`, the IC50 is 500 nM.

In turn, `O=C(N[C@@H](Cc1c[nH]c2ccccc12)C(=O)O)C(CS)Cc1ccccc1` (stereo partly specified) yielded a half-maximal inhibitory concentration (IC50) of 340 nM.

As for `COC(=O)[C@H](Cc1c[nH]c2ccccc12)NC(=O)[C@H](S)Cc1ccccc1`, the IC50 was determined as 2200 nM.

In turn, `O=C(N[C@@H](Cc1c[nH]c2ccccc12)C(=O)O)C(CS)Cc1ccc(-c2ccccc2)cc1` (stereo partly specified) displayed an IC50 of 40 nM.

For the molecule `O=C(N[C@@H](Cc1ccc(-c2cccs2)cc1)C(=O)O)C(CS)Cc1cccc(Br)c1` (stereo partly specified), the IC50 was 80 nM.

Turning to `O=C(N[C@@H](Cc1c[nH]c2ccccc12)C(=O)O)[C@H](S)Cc1ccccc1`, it took 400 nM to reach half-maximal inhibition (IC50).

Turning to `O=C(N[C@@H](Cc1c[nH]c2ccccc12)C(=O)O)C(CS)Cc1cc2c(cc1Cl)OCO2` (stereo partly specified), the concentration for half-maximal inhibition (IC50) is 400 nM.

As for `O=C(N[C@@H](Cc1ccc(-c2ccccc2)cc1)C(=O)O)[C@@H](CS)Cc1ccccc1`, the IC50 stood at 150 nM.

Turning to `COC(=O)[C@H](Cc1c[nH]c2ccccc12)NC(=O)[C@H](CS)Cc1ccccc1`, the IC50 is 3500 nM.

For `COC(=O)[C@H](Cc1c[nH]c2ccccc12)NC(=O)[C@@H](CS)Cc1ccccc1`, the 50% inhibitory concentration (IC50) was 1800 nM.

The molecule `COc1ccc(-c2ccc(C[C@H](NC(=O)[C@@H](CS)Cc3ccccc3)C(=O)O)cc2)cc1` gave an IC50 of 800 nM.

`O=C(N[C@@H](Cc1c[nH]c2ccccc12)C(=O)O)[C@@H](CS)Cc1ccccc1` returned an IC50 of 180 nM.

In turn, `O=C(N[C@@H](Cc1ccccc1)C(=O)O)[C@@H](CS)Cc1ccccc1` displayed a half-inhibitory concentration (IC50) of 1200 nM.

For `O=C(N[C@@H](Cc1ccc(-c2ccc3ccccc3c2)cc1)C(=O)O)[C@@H](CS)Cc1ccccc1`, 300 nM corresponded to half-maximal inhibition (IC50).

Consider `O=C(N[C@@H](Cc1c[nH]c2ccccc12)C(=O)O)C(CS)Cc1cccc(-c2ccccc2)c1` (stereo partly specified), for which the IC50 turned out to be 40 nM.

Turning to `O=C(N[C@@H](Cc1ccc(OCc2ccccc2)cc1)C(=O)O)[C@@H](CS)Cc1ccccc1`, the IC50 was 700 nM.

Molecule `O=C(N[C@@H](Cc1c[nH]c2ccccc12)C(=O)O)C(CS)Cc1ccc(OCc2ccccc2)cc1` (stereo partly specified) returned an IC50 of 800 nM.

As to `O=C(N[C@@H](Cc1ccc(O)cc1)C(=O)O)[C@@H](CS)Cc1ccccc1`, the midpoint of inhibition, the IC50, lay at 2800 nM.
